In patent US6313180A, “Steroid compounds having contraceptive and anti-osteoporosis activity” (priority 1997, dated 2001):

What was measured:
[1] = biological target: T1, human estradiol (E) receptor (Homo sapiens, UniProt P03372); assay type: binding
T1 construct: present in human breast tumor cells (MCF-7 cells); endogenous in cells; host or cells: MCF-7 human breast tumor cells
T1 sequence (P03372 1-595): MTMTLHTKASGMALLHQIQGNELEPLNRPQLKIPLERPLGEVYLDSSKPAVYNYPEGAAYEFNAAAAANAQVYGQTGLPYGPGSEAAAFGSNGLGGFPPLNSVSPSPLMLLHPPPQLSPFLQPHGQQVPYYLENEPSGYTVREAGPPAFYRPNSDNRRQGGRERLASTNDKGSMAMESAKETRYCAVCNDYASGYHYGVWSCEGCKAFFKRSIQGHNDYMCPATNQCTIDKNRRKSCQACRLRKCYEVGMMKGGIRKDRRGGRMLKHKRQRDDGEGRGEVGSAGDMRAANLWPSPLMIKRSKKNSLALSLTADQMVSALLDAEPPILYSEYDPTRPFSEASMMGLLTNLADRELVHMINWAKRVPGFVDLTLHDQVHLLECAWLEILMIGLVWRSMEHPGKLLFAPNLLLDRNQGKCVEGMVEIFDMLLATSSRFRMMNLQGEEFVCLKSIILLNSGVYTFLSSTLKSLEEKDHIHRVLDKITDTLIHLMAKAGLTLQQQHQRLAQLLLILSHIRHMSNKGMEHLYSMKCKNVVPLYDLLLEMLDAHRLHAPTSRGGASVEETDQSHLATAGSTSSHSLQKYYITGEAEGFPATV
Description: The relative estradiol receptor binding affinity was measured in the same manner as described above but using 17βestradiol as a reference.
(§1) Several of the compounds according to the Examples I-VI, as well as other compounds according to the invention synthesized in analogous manner, were subjected to the tests described in the Examples VII and VIII. The results are described in the Table, in which the type of A-ring and the substitution at carbon atoms nos. 7, 11, and 17 is indicated. In the columns captioned E and P, the relative binding affinities for the estrogen and progesterone receptors are given; the ED50 results of the AllenDoisy and the McPhail tests have been indicated in μg/kg. In the column captioned "Osteoporosis", the ED50 results of the anti-osteoporosis test are given (dose in μg/kg, day, as described above).

ovariectomised rats = assay: Prevention of ovariectomy-induced bone loss in rats (anti-osteoporosis test, pQCT trabecular bone mineral density); assay type: in vivo, rat (female Wistar); settings: Rattus norvegicus, 672 h; oral administration; ovariectomised rats, once or twice daily for 4 weeks; 40-60% proportional difference in trabecular bone mineral density; read-out: Osteoporosis ED50
Source text: Ovariectomy induces in rats bone loss, which is due to oestrogen deficiency. Administration of oestrogenic compounds prevents this effect. The test is used to evaluate a compound for anti-osteoporotic activity in ovariectomised rats. The effect on bone mass can be evaluated by peripheral Quantitave Computed Tomography (pQCT) measurement of trabecular bone mineral density.
Mature virgin female Wistar rats preferentially, 225-250 g. Strain: Hsd/Cpd:Wu, SPF-bred by Harlan, CPB, Zeist, The Netherlands.
On day 1 of the experiment the rats are weighed and distributed over the cages in order of body weight. The rat with the lowest body weight in the first cage and the heaviest rat in the last cage. Treatments are randomized over the rats per block. A block (group of 3+n treatments) consists of 1 Intact placebo rat, 1 OVX placebo rat, 1 OVX reference rat and 1 rat of each n treatments.
Sham-operation and ovariectomy are performed under ether anaesthesia. After recovery from the anaesthesia, within 24 h, vehicle, reference compound or test compound is administered once or twice daily for 4 weeks.
Trabecular bone mineral density (mg/cm^3) of the metaphyseal part of the femur was measured with a pQCT (peripheral Quantitative Computed Tomography machine; XCT 960A, Stratec, Birkenfeld, Germany) directly after autopsy on fresh tissue. Two 360° scans, which have, due to the X-ray beam, a standard thickness of 1 mm were taken. The scans have a resolution of 0.148×0.148 mm. One scan was taken at 5.5 mm from the distal end of the femur, where trabecular bone mineral density of the metaphyseal part was measured. The other scan was taken in the diaphysis at 13.5 mm from the distal end, which contains no trabecular bone. In the latter scan cortical bone mineral density and the geometrical parameters, such as cortical thickness, total bone area, outer and inner diameter, were determined. Intra- and inter-assay variation for the measurement of trabecular bone mineral density in the distal femur were about 2-3%. The XCT-960A was calibrated with a standard of hydroxyapatite embedded in acrylic plastic.
Ovariectomy causes a statistically significant decrease in trabecular bone mineral density (P≤0.05, 2 way ANOVA).
The active dose (ED50) is the dose where a mean proportional difference in trabecular bone mineral density between 40 and 60% is reached as compared to the sham and ovariectomised group.
as §1

[2] = Allen Doisy test for estrogenic activity in vivo; settings: oral administration; estrogenic activity; read-out: AllenDoisy ED50
[3] = system: human progesterone (P) receptor; assay: Relative progesterone receptor binding affinity, cytoplasmic receptors of MCF-7 cells; settings: relative to (16α)-16-ethyl-21-hydroxy-19-norpregn-4-ene-3,20-dione, 16 h, 4° C
[4] = McPhail test for progestagenic activity in vivo; settings: oral administration; progestagenic activity; read-out: McPhail ED50

| Structure (SMILES) | Relative binding affinity to the human estradiol (E) receptor [1] [%] | ED50 (ovariectomised rats) [mg/kg] | ED50 [2] [mg/kg] | Relative binding affinity to the human progesterone (P) receptor [3] [%] | ED50 [4] [mg/kg] |
| --- | --- | --- | --- | --- | --- |
| CCC[C@@H]1Cc2cc(O)ccc2[C@H]2CC[C@@]3(C)[C@@H](C[C@H]4C[C@@H](C)C[C@]43O)[C@H]12 [Code 38514] | 11 | < 0.032 | 0.024 | 4 | > 2 |
| CCC[C@H]1C[C@H]2C[C@H]3[C@@H]4[C@H](C)Cc5cc(O)ccc5[C@H]4CC[C@]3(C)[C@@]2(O)C1 [Code 38079] | < 1 |  | > 4 | 1 |  |
| CCC[C@@H]1Cc2cc(O)ccc2[C@H]2CC[C@@]3(C)[C@@H](C[C@H]4CCCC[C@]43O)[C@H]12 [Code 38515, (7-alpha,16-alpha,17-alpha)-7-propyl-16,24-cyclo-19,21-dinorchola-1,3,5(10)-trien-3,17-diol] | 16 | 0.19 | 0.096 | 10 | 4 |
| C[C@]12CC[C@@H]3c4ccc(O)cc4CC[C@H]3[C@@H]1C[C@H]1CCCC[C@]12O [Code 37469] | 1 | > 4 | > 4 | 23 | > 2 |
| CCC[C@H]1C[C@@H]2C[C@H]3[C@@H]4CCc5cc(O)ccc5[C@H]4CC[C@]3(C)[C@]2(O)C1 [Code 37969] | 3 | > 1 | > 1 | 25 | 4 |
| CC[C@H]1C[C@@]2(C)[C@@H](C[C@H]3CCCC[C@]32O)[C@@H]2CCc3cc(O)ccc3[C@@H]12 [Code 37862] | 96 | < 0.016 | 0.032 | 2 |  |
| CCC[C@@H]1C[C@@H]2C[C@H]3[C@@H]4CCc5cc(O)ccc5[C@H]4CC[C@]3(C)[C@]2(O)C1 [Code 37968] | 1 |  | > 1 | 6 | > 4 |
| CCC[C@@H]1Cc2cc(O)ccc2[C@H]2CC[C@@]3(C)[C@@H](C[C@H]4C[C@H](C)C[C@]43O)[C@H]12 [Code 38481, (4'S,7-alpha,16-beta, 17-beta)-3',4',5',16-tetrahydro-4'-methyl-7-propyl-17H-cyclopenta[16,17]estra-1,3,5(10)-trien-3,17-diol] | 23 | 0.125 | 0.064 | 6 | > 4 |
| CCC[C@@H]1Cc2cc(O)ccc2[C@H]2CC[C@@]3(C)[C@@H](C[C@@H]4C[C@@H](C)C[C@@]43O)[C@H]12 [Code 38513] | 0.2 |  | 2 |  | > 0.125 |
| C[C@H]1C[C@@H]2C[C@H]3[C@@H]4[C@H](C)Cc5cc(O)ccc5[C@H]4CC[C@]3(C)[C@]2(O)C1 [Code 37893] | 38 | 0.5 | 0.5 | 11 | > 4 |
| C[C@@H]1Cc2cc(O)ccc2[C@H]2CC[C@@]3(C)[C@@H](C[C@H]4CCCC[C@]43O)[C@H]12 [Code 37828] | 11 | 0.5 | 0.192 | 10 |  |
